Data on 15 molecules can be found in patent US9260425B2 (Genetech, Inc., priority 2011, dated 2016).

The Ki is the equilibrium dissociation constant of an inhibitor or competing ligand from its target.

Pim-1, sequence (P11309 whole entry): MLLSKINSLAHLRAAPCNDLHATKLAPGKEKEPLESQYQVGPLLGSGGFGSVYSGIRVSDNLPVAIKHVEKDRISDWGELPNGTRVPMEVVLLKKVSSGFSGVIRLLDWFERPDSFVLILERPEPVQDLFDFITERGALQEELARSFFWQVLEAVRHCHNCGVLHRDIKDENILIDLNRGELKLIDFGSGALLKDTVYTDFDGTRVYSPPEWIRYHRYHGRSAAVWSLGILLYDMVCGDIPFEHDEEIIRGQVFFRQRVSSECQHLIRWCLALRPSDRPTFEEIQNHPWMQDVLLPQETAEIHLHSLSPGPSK

This assay concerns the target Pim-1 (Homo sapiens (Human), UniProt P11309). The experiment in a line: Pim kinase binding activity assay (Example 901), PIM-1 enzyme, Caliper microfluidic peptide phosphorylation. The assay is classed as biochemical. The note with it: 20 pM PIM-1, 10 μM ATP, 1 μM FAM-peptide, 90 minutes at room temperature. In a few lines:
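PIM-1 at 20 pM phosphorylated 1 μM FAM-labelled Pim peptide with 10 μM ATP in HEPES pH 7.2, MgCl2, Tween 20 and DTT for 90 min at room temperature. EDTA stopped the reaction, and product and substrate were resolved by microfluidic electrophoresis (ex 488/em 530 nm). Ki was derived from substrate conversion.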
For `NCC1CCN(c2cccc(-c3n[nH]c4cnc(-c5cccnc5)cc34)n2)CC1` [Example 278, (1-(6-(5-(pyridin-3-yl)-1H-pyrazolo[3,4-c]pyridin-3-yl)pyridin-2-yl)piperidin-4-yl)methanamine], the Ki came to 0.1 nM. Regarding `C1=C(c2n[nH]c3cnc(-c4cccnc4)cc23)CCCO1` [Example 281, 3-(3,4-dihydro-2H-pyran-5-yl)-5-(pyridin-3-yl)-1H-pyrazolo[3,4-c]pyridine], affinity was put at a Ki of 28.8 nM. In the case of `OCCN1CCN(c2cccc(-c3n[nH]c4cnc(-c5cccnc5)cc34)n2)CC1` [Example 282, 2-(4-(6-(5-(pyridin-3-yl)-1H-pyrazolo[3,4-c]pyridin-3-yl)pyridin-2-yl)piperazin-1-yl)ethanol], the Ki is 0.164 nM. Molecule `NCCCCNc1cccc(-c2n[nH]c3cnc(-c4cccnc4)cc23)n1` [Example 283, N1-(6-(5-(pyridin-3-yl)-1H-pyrazolo[3,4-c]pyridin-3-yl)pyridin-2-yl)butane-1,4-diamine] returned a Ki of 0.257 nM. As to `C1=C(c2n[nH]c3cnc(-c4cccnc4)cc23)CCO1` [Example 284, 3-(4,5-dihydrofuran-3-yl)-5-(pyridin-3-yl)-1H-pyrazolo[3,4-c]pyridine], the affinity corresponds to a Ki of 10.6 nM. The figure for `CCn1cc(-c2cc3c(-c4cccc(N5CCC[C@@H](N)C5)n4)n[nH]c3cn2)cn1` [Example 285, (R)-1-(6-(5-(1-ethyl-1H-pyrazol-4-yl)-1H-pyrazolo[3,4-c]pyridin-3-yl)pyridin-2-yl)piperidin-3-amine] is 0.0473 nM; for `Cn1cc(-c2cc3c(-c4cccc(N5CCC(N)(C(F)(F)F)C5)n4)n[nH]c3cn2)cn1` (stereo not drawn) [Example 286, 1-(6-(5-(1-methyl-1H-pyrazol-4-yl)-1H-pyrazolo[3,4-c]pyridin-3-yl)pyridin-2-yl)-3-(trifluoromethyl)pyrrolidin-3-amine] it is 0.093 nM; for `Cc1ccc(-c2n[nH]c3cnc(-c4cccnc4)cc23)nc1N1CCC(O)CC1` [Example 288, 1-(3-methyl-6-(5-(pyridin-3-yl)-1H-pyrazolo[3,4-c]pyridin-3-yl)pyridin-2-yl)piperidin-4-ol] it is 0.086 nM. With `N[C@H]1CCCN(c2nc(-c3n[nH]c4cnc(-c5cccnc5)cc34)ccc2Br)C1` [Example 289, (S)-1-(3-bromo-6-(5-(pyridin-3-yl)-1H-pyrazolo[3,4-c]pyridin-3-yl)pyridin-2-yl)piperidin-3-amine], the Ki is 0.017 nM. The molecule `N[C@@H]1CCCN(c2nc(-c3n[nH]c4cnc(-c5cccnc5)cc34)ccc2Br)C1` [Example 290, (R)-1-(3-bromo-6-(5-(pyridin-3-yl)-1H-pyrazolo[3,4-c]pyridin-3-yl)pyridin-2-yl)piperidin-3-amine] had a Ki of 0.082 nM.

For the molecule `O[C@@H]1CCCN(c2nc(-c3n[nH]c4cnc(-c5cccnc5)cc34)ccc2Br)C1` [Example 291, (R)-1-(3-bromo-6-(5-(pyridin-3-yl)-1H-pyrazolo[3,4-c]pyridin-3-yl)pyridin-2-yl)piperidin-3-ol], the inhibition constant Ki was determined as 0.261 nM. In the case of `OC1CCN(c2nc(-c3n[nH]c4cnc(-c5cccnc5)cc34)ccc2Br)CC1` [Example 292, 1-(3-bromo-6-(5-(pyridin-3-yl)-1H-pyrazolo[3,4-c]pyridin-3-yl)pyridin-2-yl)piperidin-4-ol], the Ki worked out at 0.181 nM.

Molecule `O[C@@H]1CCN(c2nc(-c3n[nH]c4cnc(-c5cccnc5)cc34)ccc2Br)C1` [Example 293, (R)-1-(3-bromo-6-(5-(pyridin-3-yl)-1H-pyrazolo[3,4-c]pyridin-3-yl)pyridin-2-yl)pyrrolidin-3-ol] came in with a Ki of 0.412 nM. The figure for `Cn1cc(-c2cc3c(-c4cccc(N5CCC(O)CC5)n4)n[nH]c3cn2)cn1` [Example 294, 1-(6-(5-(1-methyl-1H-pyrazol-4-yl)-1H-pyrazolo[3,4-c]pyridin-3-yl)pyridin-2-yl)piperidin-4-ol] is 0.168 nM; for `O=C1N(c2n[nH]c3cnc(-c4cccnc4)cc23)CCC12CCNCC2` [Example 295, 2-(5-(pyridin-3-yl)-1H-pyrazolo[3,4-c]pyridin-3-yl)-2,8-diazaspiro[4.5]decan-1-one] it is 39.9 nM.
